According to patent publication US20230220021A1, “CYCLIC PEPTIDE INHIBITORS OF PSD-95 AND USES THEREOF” (University of Copenhagen, priority 2020, published 2023):
Where a SMILES comes first, the peptide text is derived from it. [ ]: non-standard residue; d: D form.

Assays:
[1] = target: T1, PSD-95-PDZ2 (Homo sapiens, UniProt P78352); experiment: Fluorescence polarization (FP) competition assay against cyclic nNOS TAMRA probe; format: binding; settings: for Ki: FP competition, cyclic nNOS TAMRA probe, mean of triplicates, N.B. = not binding, read-out: Ki; for Relative Ki (Ki mut/Ki WT): FP inhibition constant normalized to WT value
T1 construct: 7xHis (N); made in house; host or cells: Escherichia coli B21 pLys (for the mutants, 'as previously described')
Description: Fluorescence polarization (FP). FP assays were performed in a 384-well plate format. Fluorescence polarization was measured using a Safire 2 plate reader. The instrument Z-factor was optimized for each assay. The G-factor was calibrated to an initial milli polarization value of 20. The wavelength for the cyclic nNOS β-hairpin TAMRA probe was: ex: 530 nm and em: 580 nm. Every measurement was performed in NaPI 50 mM, 50 mM NaCl and 1% BSA at pH 7.2, 25° C. […] The curves were done in triplicates. Then, the polarization was fitted into a one-site binding model using Prism software 8.0 (GraphPad), from which the Kd can be measured. […] The mili polarization (mP) values were plotted as a function of peptide concentration and fitted to a sigmoidal dose-response curve using Prism software 8.0 (GraphPad). The Ki values were calculated according to Nikolovska-Coleska Z. et al.^40-41

[2] = target: T2, PSD-95-PDZ2 (Homo sapiens, UniProt P78352, V178C); experiment: SPOT peptide array screening with TAMRA labelled PSD-95-PDZ2; format: binding; settings: SPOT array, TAMRA labelled PSD-95-PDZ2-V178C, normalized to WT
T2 construct: screened with the TAMRA labelled PSD-95-PDZ2-V178C domain; 7xHis (N); made in house
Description: SPOT peptide array synthesis. To generate the cyclic nNOSβ-hairpin arrays, we used the Intavis MultiPep spotter (Intavis Bioanalytical instruments). The membranes employed in this assay were SynthoPlan APEG CE (standard amino-modified acid stable sellulose membrane with a PEG-spacer), 10×15 cm with a loading of 400 nmol cm^−2. Solutions of 0.3 M Fmoc-AA-OH and 0.3 M Oxyma Pure were prepared in N-methyl-2-pyrrolidone (NMP). The activator solution consisted of 0.3 M DIC and 0.3 M of 2,4,6-trimethylpyridine (Collidine) in NMP. The capping solution consisted of a solution of 1 M acetic anhydride and 0.05 M of 4-dimethylaminopyridine (DMAP) in NMP. The deprotection solution consisted of 20% piperidine in NMP. AA couplings were performed 1 h,4 times. Deprotection of the Fmoc groups was performed 15min,2 times. Membrane washing between couplings or deprotections was performed with NMP and ethanol. Elongation of peptides in cellulose membrane was started by coupling first the Fmoc-PEG(9)-OH (Iris Biotech) and the subsequent mixture of Fmoc-Gly-OH (25%) and Boc-Gly-OH (75%) to lower the total loading of the membrane. Afterwards, the resin was capped with the capping solution and extensively washed and soaked in bromophenol blue (BPB) as a quality control to reveal the SPOTS with a functional amino group. Then, we coupled the quasi-orthogonal group Fmoc-Glu-PP, and carried out the rest of the synthesis until peptide completion. The cellulose bound linear peptides were finally treated with a solution of 95% DCM, 3% TIPS and 2% TFA 3 times, 20 min. to remove the quasi-orthogonal group. Afterwards, the membrane was washed 5 times with DCM and neutralized with 5% DIPEA in DCM. The membrane was then washed 5 more times with DCM, 5 times with NMP and cyclized with 0.3M PyAOP and 0.3M of DIPEA in DMF for 3 h or overnight. Finally, the membrane was dried with DCM and the side-chain protecting groups were cleaved with the standard deprotection cocktail (95% TFA, 2.5% H2O and 2.5% TIPS) or with reagent K [TFA 82.5%, phenol 5%, H2O 5%, thioanisole 5% and 1,2-ethanedithiol (EDT) 2.5%] for 3 h.
SPOT membrane screening. Membranes were incubated with PBS pH 7.2+0.5% bovine serum albumin (BSA) for 1 h. After the incubation period, the membrane was dried and scanned with an Amershan Typhoon scanner, at 400V, Cy3 wavelength (532 nm). A TIF file of the screening and a file with the blank values were generated using the Image Quant software. Afterwards, a solution of 50 nM of TAMRA labelled PSD-95-PDZ2 domain was prepared in PBS pH 7.2+0.5% BSA and was added to the membrane. The membrane was left incubating in a Polymax 1040 rocking table for 1 h protected from the light. Passed the incubation time, the excess of labelled protein was removed by washing the membrane 3 times with PBS+0.5% BSA. Finally, the membrane fluorescence values were measured with the Amershan Typhoon scanner at 400V, Cy3 wavelength (532 nm). Using the Image Quant software, the TIF image of the screening and a file with the fluorescence values of the peptides with the TAMRA labelled PSD-95-PDZ2 were generated. The blank was then subtracted from the fluorescence values of the peptides screened against the TAMRA labelled PSD-95-PDZ2.
A deep mutational scan was performed on the WT scaffold, exchanging each AA to the remaining 19 L-AAs. Each array contained three copies of the individual peptides as technical replicates. Additionally, three controls were included in the design: the cyclic nNOS β-hairpin WT control (positive control), a linear nNOS peptide (cyclization control) and a cyclic nNOS β-hairpin with a F111V substitution (negative control previously tested in FP competition assays). For array screening, a mutation in PSD-95-PDZ2 residue V178 (PSD-95-PDZ2-V178C) was introduced, which was subsequently labelled with TAMRA maleimide. […]

| Structure (SMILES) | Ki [1] | Relative Ki (Ki mut/Ki WT) [1] | Normalized SPOT fluorescence (Mut/WT) [2] |
| --- | --- | --- | --- |
| CC[C@H](C)[C@@H]1NC(=O)[C@H]([C@@H](C)O)NC(=O)[C@H](CCCCN)NC(=O)[C@@H]2CCCN2C(=O)[C@H]([C@@H](C)O)NC(=O)[C@@H]2CCCN2C(=O)[C@H](CC(=O)O)NC(=O)CNC(=O)[C@H]([C@@H](C)O)NC(=O)[C@H](Cc2ccccc2)NC(=O)[C@H]([C@@H](C)O)NC(=O)[C@H]([C@@H](C)O)NC(=O)[C@H](CCC(=O)O)NC(=O)[C@H](CC(C)C)NC(=O)[C@H](Cc2c[nH]cn2)NC(=O)[C@H]([C@@H](C)O)NC(=O)[C@H](CCC(N)=O)NC(=O)CNC(=O)[C@H]2CCCN2C(=O)[C@H](CCC(N)=O)NC(=O)[C@H]([C@@H](C)O)NC(=O)[C@H](C(C)C)NC(=O)[C@H](CCCNC(=N)N)NC1=O [compound 30] (cyclo(THLETTFTGDPTPKTIRVTQ[dP]GQ)) | 420 nM | 0.28 | 2.33 |
| CC[C@H](C)[C@@H]1NC(=O)[C@H]([C@@H](C)O)NC(=O)[C@H](CCCCN)NC(=O)[C@@H]2CCCN2C(=O)[C@H](CCC(=O)O)NC(=O)CNC(=O)[C@H](CC(=O)O)NC(=O)CNC(=O)[C@H]([C@@H](C)O)NC(=O)[C@H](Cc2ccccc2)NC(=O)[C@H]([C@@H](C)O)NC(=O)[C@H]([C@@H](C)O)NC(=O)[C@H](CCC(=O)O)NC(=O)[C@H](CC(C)C)NC(=O)[C@H](Cc2c[nH]cn2)NC(=O)[C@H]([C@@H](C)O)NC(=O)[C@H](CCC(N)=O)NC(=O)CNC(=O)[C@H]2CCCN2C(=O)[C@H](CCC(N)=O)NC(=O)[C@H]([C@@H](C)O)NC(=O)[C@H](C(C)C)NC(=O)[C@H](CCCNC(=N)N)NC1=O [compound 33] (cyclo(THLETTFTGDGEPKTIRVTQ[dP]GQ)) | 420 nM | 0.28 | 1.37 |
| CC[C@H](C)[C@@H]1NC(=O)[C@H]([C@@H](C)O)NC(=O)[C@H](CCCCN)NC(=O)[C@@H]2CCCN2C(=O)[C@H]([C@@H](C)O)NC(=O)CNC(=O)[C@H](CC(=O)O)NC(=O)CNC(=O)[C@H]([C@@H](C)O)NC(=O)[C@H](Cc2ccccc2)NC(=O)[C@H]([C@@H](C)O)NC(=O)[C@H]([C@@H](C)O)NC(=O)[C@H](CCC(=O)O)NC(=O)[C@H](CC(C)C)NC(=O)[C@H](Cc2c[nH]cn2)NC(=O)[C@H]([C@@H](C)O)NC(=O)[C@H](CCC(N)=O)NC(=O)CNC(=O)[C@H]2CCCN2C(=O)[C@H](CCCNC(=N)N)NC(=O)[C@H](CCCNC(=N)N)NC(=O)[C@H](C(C)C)NC(=O)[C@H](CCCNC(=N)N)NC1=O [compound 45] (cyclo(THLETTFTGDGTPKTIRVRR[dP]GQ)) | – | 1.31 | 3.50 |
| CC[C@H](C)[C@@H]1NC(=O)[C@H]([C@@H](C)O)NC(=O)[C@H](CCCCN)NC(=O)[C@@H]2CCCN2C(=O)[C@H]([C@@H](C)O)NC(=O)CNC(=O)[C@H](CC(=O)O)NC(=O)CNC(=O)[C@H]([C@@H](C)O)NC(=O)[C@H](Cc2ccccc2)NC(=O)[C@H](CC(=O)O)NC(=O)[C@H]([C@@H](C)O)NC(=O)[C@H](CCC(=O)O)NC(=O)[C@H](CC(C)C)NC(=O)[C@H](Cc2c[nH]cn2)NC(=O)[C@H]([C@@H](C)O)NC(=O)[C@H](CCC(N)=O)NC(=O)CNC(=O)[C@H]2CCCN2C(=O)[C@H](CCC(N)=O)NC(=O)[C@H]([C@@H](C)O)NC(=O)[C@H](C(C)C)NC(=O)[C@H](CCCNC(=N)N)NC1=O [compound 54] (cyclo(THLETDFTGDGTPKTIRVTQ[dP]GQ)) | 1420 nM | 0.95 | 0.16 |

The next lines start with the values.

| Ki [1] | Relative Ki (Ki mut/Ki WT) [1] | Normalized SPOT fluorescence (Mut/WT) [2] | Structure (SMILES) |
| --- | --- | --- | --- |
| 1470 nM | 0.98 | 1.32 | CC[C@H](C)[C@@H]1NC(=O)[C@H]([C@@H](C)O)NC(=O)[C@H](CCCCN)NC(=O)[C@@H]2CCCN2C(=O)[C@H]([C@@H](C)O)NC(=O)CNC(=O)[C@H](CC(=O)O)NC(=O)CNC(=O)[C@H]([C@@H](C)O)NC(=O)[C@H](Cc2ccccc2)NC(=O)[C@H]([C@@H](C)O)NC(=O)[C@H]([C@@H](C)O)NC(=O)[C@H](CCC(=O)O)NC(=O)[C@H](CC(C)C)NC(=O)[C@H](Cc2c[nH]cn2)NC(=O)[C@H](Cc2ccc(O)cc2)NC(=O)[C@H](CCC(N)=O)NC(=O)CNC(=O)[C@H]2CCCN2C(=O)[C@H](CCC(N)=O)NC(=O)[C@H]([C@@H](C)O)NC(=O)[C@H](C(C)C)NC(=O)[C@H](CCCNC(=N)N)NC1=O [compound 24] (cyclo(YHLETTFTGDGTPKTIRVTQ[dP]GQ)) |
| 480 nM | 0.32 | 1.85 | CC[C@H](C)[C@@H]1NC(=O)[C@H]([C@@H](C)O)NC(=O)[C@H](CCCCN)NC(=O)[C@@H]2CCCN2C(=O)[C@H](CC(=O)O)NC(=O)CNC(=O)[C@H](CC(=O)O)NC(=O)CNC(=O)[C@H]([C@@H](C)O)NC(=O)[C@H](Cc2ccccc2)NC(=O)[C@H]([C@@H](C)O)NC(=O)[C@H]([C@@H](C)O)NC(=O)[C@H](CCC(=O)O)NC(=O)[C@H](CC(C)C)NC(=O)[C@H](Cc2c[nH]cn2)NC(=O)[C@H]([C@@H](C)O)NC(=O)[C@H](CCC(N)=O)NC(=O)CNC(=O)[C@H]2CCCN2C(=O)[C@H](CCC(N)=O)NC(=O)[C@H]([C@@H](C)O)NC(=O)[C@H](C(C)C)NC(=O)[C@H](CCCNC(=N)N)NC1=O [compound 32] (cyclo(THLETTFTGDGDPKTIRVTQ[dP]GQ)) |
| – | 2.51 | 2.00 | CC[C@H](C)[C@@H]1NC(=O)[C@H]([C@@H](C)O)NC(=O)[C@H](CCCCN)NC(=O)[C@@H]2CCCN2C(=O)[C@H]([C@@H](C)O)NC(=O)CNC(=O)[C@H](CC(=O)O)NC(=O)CNC(=O)[C@H](CCSC)NC(=O)[C@H](Cc2ccccc2)NC(=O)[C@H]([C@@H](C)O)NC(=O)[C@H]([C@@H](C)O)NC(=O)[C@H](CCC(=O)O)NC(=O)[C@H](CC(C)C)NC(=O)[C@H](Cc2c[nH]cn2)NC(=O)[C@H]([C@@H](C)O)NC(=O)[C@H](CCC(N)=O)NC(=O)CNC(=O)[C@H]2CCCN2C(=O)[C@H](CCC(N)=O)NC(=O)[C@H]([C@@H](C)O)NC(=O)[C@H](C(C)C)NC(=O)[C@H](CCCNC(=N)N)NC1=O [compound 37] |
| 1500 nM | 1.00 | 0.97 | CC[C@H](C)[C@@H]1NC(=O)[C@H]([C@@H](C)O)NC(=O)[C@H](CCCCN)NC(=O)[C@@H]2CCCN2C(=O)[C@H]([C@@H](C)O)NC(=O)CNC(=O)[C@H](CC(=O)O)NC(=O)CNC(=O)[C@H]([C@@H](C)O)NC(=O)[C@H](Cc2ccccc2)NC(=O)[C@H]([C@@H](C)O)NC(=O)[C@H]([C@@H](C)O)NC(=O)[C@H](CCC(=O)O)NC(=O)[C@H](CC(C)C)NC(=O)[C@H](Cc2c[nH]cn2)NC(=O)[C@H](C)NC(=O)[C@H](CCC(N)=O)NC(=O)CNC(=O)[C@H]2CCCN2C(=O)[C@H](CCC(N)=O)NC(=O)[C@H]([C@@H](C)O)NC(=O)[C@H](C(C)C)NC(=O)[C@H](CCCNC(=N)N)NC1=O [compound 55] (cyclo(AHLETTFTGDGTPKTIRVTQ[dP]GQ)) |
